In data set [1] the target is GABAA receptor complex (benzodiazepine modulatory unit). The experiment in a line: In vitro inhibition of 3H-flunitrazepam (3H-FNM) binding. The arrangement: species or system rat. The conditions noted are these: inhibition of specific binding of 3H-FNM (1 nM), cerebral cortex membranes from male Wistar rats, 40 min at 2° C. The protocol: In vitro Inhibition of ^3H-flunitrazepam (^3H-FNM) Binding
The GABA recognition site and the benzodiazepine modulatory unit can selectively be labelled with ^3H-flunitrazepam.
Preparations are performed at 0-4° C. unless otherwise indicated. Cerebral cortex from male Wistar rats (150-200 g) is homogenised for 5-10 sec in 20 ml Tris-HCl (30 mM, pH 7.4) using an Ultra-Turrax homogeniser. The suspension is centrifuged at 27,000×g for 15 min and the pellet is washed three times with buffer (centrifuged at 27,000×g for 10 min). The washed pellet is homogenized in 20 ml of buffer and incubated on a water bath (37° C.) for 30 min to remove endogenous GABA and then centrifuged for 10 min at 27,000×g. The pellet is then homogenized in buffer and centrifuged for 10 min at 27,000×g. The final pellet is resuspended in 30 ml buffer and the preparation is frozen and stored at −20° C.
The membrane preparation is thawed and centrifuged at 2° C. for 10 min at 27,000×g. The pellet is washed twice with 20 ml 50 mM Tris-citrate, pH 7.1 using an Ultra-Turrax homogeniser and centrifuged for 10 min at 27,000×g. The final pellet is resuspended in 50 mM Tris-citrate, pH 7.1 (500 ml buffer per g of original tissue), and then used for binding assays. Aliquots of 0.5 ml tissue are added to 25 μl of test solution and 25 μl of ^3H-FNM (1 nM, final concentration), mixed and incubated for 40 min at 2° C. Non-specific binding is determined using Clonazepam (1 μM, final concentration). After incubation the samples are added 5 ml of ice-cold buffer and poured directly onto Whatman GF/C glass fibre filters under suction and immediately washed with 5 ml ice-cold buffer. The amount of radioactivity on the filters is determined by conventional liquid scintillation counting. Specific binding is total binding minus non-specific binding.
25-75% inhibition of specific binding must be obtained, before calculation of an IC50.
The test value will be given as IC50 (the concentration (μM) of the test substance which inhibits the specific binding of ^3H-FNM by 50%). […]

What is called melting point is the temperature of the solid-liquid transition. As a reminder, the IC50 is the concentration needed to halve the response being measured.

Counter-ions that a name gives are not always drawn.

On to `c1ccc(COCc2cccc(-n3cnc4cc(CN5CCCC5)ccc43)c2)nc1`, for which the melting point lay in the range of 192 to 194 °C. `ON=Cc1ccc2c(c1)ncn2-c1cccc(COCc2ccccn2)c1` had a melting point of 154 to 154.8 °C. On the same count and under the same terms, the result for `ON=Cc1ccc2c(c1)ncn2-c1cccc(CNCc2ccc(F)c(F)c2)c1` reads 165 to 167 °C; that for `CCOC(=O)c1ccc2c(c1)ncn2-c1cccc(COCc2ccccn2)c1`, 99.8 to 101.2 °C. Same read-out and setting: the result for `CC(=NO)c1ccc2c(c1)ncn2-c1cccc(COCc2ncnn2C)c1` (as salt: chloride) [Compound 22a, 1-{1-[3-(2-Methyl-2H-[1,2,4]triazol-3-ylmethoxymethyl)-phenyl]-1H-benzoimidazol-5-yl}-ethanone oxime] reads 178.8 to 180.4 °C. `CC(=NO)c1ccc2c(c1)ncn2-c1cccc(COCc2ncnn2C)c1` [Compound 22a, 1-{1-[3-(2-Methyl-2H-[1,2,4]triazol-3-ylmethoxymethyl)-phenyl]-1H-benzoimidazol-5-yl}-ethanone oxime] returned a concentration for half-maximal inhibition (IC50) in data set [1] of 2.1 nM. This counts as single-digit nanomolar. Still for that read-out and setting: the result for `CC(O)c1ccc2c(c1)ncn2-c1cccc(COCc2ncnn2C)c1` (centres unmarked) [Compound 23, 1{-1-[3-(2-Methyl-2H-[1,2,4]triazol-3-ylmethoxymethyl)-phenyl]-1H-benzoimidazol-5-yl}-ethanol] reads 22 nM; that for `CCOC(C)c1ccc2c(c1)ncn2-c1cccc(COCc2ncnn2C)c1` (centres unmarked) [Compound 24b, 5-(1-Ethoxy-ethyl)-1-[3-(2-methyl-2H-[1,2,4]triazol-3-ylmethoxymethyl)-phenyl]-1H-benzoimidazole], 9.2 nM.
